Test results as given in US20240083857A1, “2-Methyl-Quinazolines” (Bayer Pharma Aktiengesellschaft, priority 2017, published 2024).
Read-outs that look alike come from different tables or passages of the source.

Assays:
[1] = target: Epidermal Growth Factor Receptor (EGFR) (Homo sapiens (Human), UniProt P00533); experiment: EGFR kinase assay (TR-FRET); assay type: biochemical; settings: read-out: EGFR kinase inhibition IC50
Method in brief: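 Read-out is the 665/620 nm HTRF ratio, from a Tb-cryptate anti-phosphotyrosine antibody and streptavidin-XL665 bound to phosphorylated biotin-peptide substrate. The enzyme, A431-derived EGFR (~3 U/ml), was given 15 min compound pre-binding at 22° C in Hepes pH 7.0 with Mg2+/Mn2+ before reaction.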

[2] = target: human SOS1 (loading of human K-Ras^G12C-GDP with fluorescent GTP-analog) (Homo sapiens, UniProt Q07889); experiment: Biochemical assay 3: K-Ras^G12C activation assay by hSOS1 (HTRF); settings: no GTP; read-out: Assay 3 (KRAS-Activation by SOS no GTP) activity expressed as IC50

Sequence of Epidermal Growth Factor Receptor (EGFR) (P00533 25-1210): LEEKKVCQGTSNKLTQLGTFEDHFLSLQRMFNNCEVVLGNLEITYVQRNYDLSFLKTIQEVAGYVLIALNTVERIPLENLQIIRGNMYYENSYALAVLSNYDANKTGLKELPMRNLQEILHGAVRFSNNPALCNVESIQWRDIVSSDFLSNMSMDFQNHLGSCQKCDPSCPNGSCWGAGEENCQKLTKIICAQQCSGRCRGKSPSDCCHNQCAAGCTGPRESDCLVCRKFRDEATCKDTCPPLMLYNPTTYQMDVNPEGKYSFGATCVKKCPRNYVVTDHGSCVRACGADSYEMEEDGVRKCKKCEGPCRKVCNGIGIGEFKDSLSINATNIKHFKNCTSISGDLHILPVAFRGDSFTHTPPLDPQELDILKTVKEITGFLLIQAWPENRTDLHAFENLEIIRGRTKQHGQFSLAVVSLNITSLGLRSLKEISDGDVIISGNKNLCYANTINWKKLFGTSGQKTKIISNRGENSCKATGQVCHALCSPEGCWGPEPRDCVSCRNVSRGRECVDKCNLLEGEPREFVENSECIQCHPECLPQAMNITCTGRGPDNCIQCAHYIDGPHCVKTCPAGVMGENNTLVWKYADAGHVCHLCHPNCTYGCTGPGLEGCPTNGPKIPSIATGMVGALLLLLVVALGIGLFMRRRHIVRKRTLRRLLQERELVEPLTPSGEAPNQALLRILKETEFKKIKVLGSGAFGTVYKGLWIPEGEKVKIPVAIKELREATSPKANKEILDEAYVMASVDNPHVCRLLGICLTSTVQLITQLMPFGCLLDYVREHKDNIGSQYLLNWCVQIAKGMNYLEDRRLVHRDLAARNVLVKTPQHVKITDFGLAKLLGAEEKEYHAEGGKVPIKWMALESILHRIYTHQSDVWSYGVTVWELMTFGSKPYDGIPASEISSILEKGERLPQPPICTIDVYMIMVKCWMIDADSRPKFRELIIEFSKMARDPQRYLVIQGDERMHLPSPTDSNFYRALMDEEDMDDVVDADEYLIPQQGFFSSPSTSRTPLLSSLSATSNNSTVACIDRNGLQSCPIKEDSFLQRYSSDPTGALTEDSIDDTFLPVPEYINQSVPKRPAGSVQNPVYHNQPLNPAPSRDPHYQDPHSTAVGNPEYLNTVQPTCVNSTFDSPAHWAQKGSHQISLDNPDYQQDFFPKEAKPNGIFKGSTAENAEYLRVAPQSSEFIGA

SMILES	IC50 ([1]; values given in μM)	IC50 [2]	IC50 ([1]; unit inferred)
COc1cc2nc(C)nc(NC(C)c3ccc(-c4ccccc4CN4CC[C@H]4CO)s3)c2cc1OC (stereo partly drawn) [Example 318, {1-[(2S)-(5-{1-[(6,7-dimethoxy-2-methylquinazolin-4-yl)amino]ethyl}thiophen-2-yl)benzyl]azetidin-2-yl}methanol]	> 20 µM	0.221 µM	–
COc1cc2nc(C)nc(NC(C)c3ccc(-c4ccccc4CN4CC(N(C)C)C4)s3)c2cc1OC (centres unmarked) [Example 319, N-{1-[5-(2-{[3-(dimethylamino)azetidin-1-yl]methyl}phenyl)thiophen-2-yl]ethyl}-6,7-dimethoxy-2-methylquinazolin-4-amine]	> 20 µM	0.127 µM	–
COc1cc2nc(C)nc(NC(C)c3ccc(-c4ccccc4CN4CC(F)(F)C4)s3)c2cc1OC (centres unmarked) [Example 320, N-[1-(5-{2-[(3,3-difluoroazetidin-1-yl)methyl]phenyl}thiophen-2-yl)ethyl]-6,7-dimethoxy-2-methylquinazolin-4-amine]	> 20 µM	3.49 µM	–
COc1cc2nc(C)nc(NC(C)c3ccc(-c4ccccc4CN(C)CC(F)(F)F)s3)c2cc1OC (centres unmarked) [Example 321, 6,7-di methoxy-2-methyl-N-{1-[5-(2-{[methyl(2,2,2-trifluoroethyl)amino]methyl}phenyl)thiophen-2-yl]ethyl}quinazolin-4-amine]	> 20 µM	12.8 µM	–
COc1cc2nc(C)nc(NC(C)c3ccc(-c4ccccc4CN4CC(F)C4)s3)c2cc1OC (centres unmarked) [Example 322, N-[1-(5-{2-[(3-fluoroazetidin-1-yl)methyl]phenyl}thiophen-2-yl)ethyl]-6,7-dimethoxy-2-methylquinazolin-4-amine]	> 20 µM	0.268 µM	–
COc1cc2nc(C)nc(NC(C)c3ccc(-c4ccc(Cl)cc4CN(C)C)s3)c2cc1OC (centres unmarked) [Example 323, N-[1-(5-{4-chloro-2-[(dimethylamino)methyl]phenyl}thiophen-2-yl)ethyl]-6,7-dimethoxy-2-methylquinazolin-4-amine]	> 20 µM	0.0664 µM	–
COc1cc2nc(C)nc(NC(C)c3ccc(-c4ccccc4C(C)=O)s3)c2cc1OC (centres unmarked) [Example 324, 1-[2-(5-{1-[(6,7-dimethoxy-2-methylquinazolin-4-yl)amino]ethyl}thiophen-2-yl)phenyl]ethanone]	> 20 µM	6.84 µM	–
COc1cc2nc(C)nc(NC(C)c3ccc(-c4ccccc4OCCN4CCCC4)s3)c2cc1OC (centres unmarked) [Example 325, 6,7-di methoxy-2-methyl-N-[1-(5-{2-[2-(pyrrolidin-1-yl)ethoxy]phenyl}thiophen-2-yl)ethyl]quinazolin-4-amine]	> 20 µM	0.438 µM	–
COc1cc2nc(C)nc(NC(C)c3cccc4sc(C)cc34)c2cc1OC (centres unmarked) [Example 330, 6,7-dimethoxy-2-methyl-N-[1-(2-methyl-1-benzothiophen-4-yl)ethyl]quinazolin-4-amine]	> 20 µM	0.547 µM	–
COc1cc2nc(C)nc(NC(C)c3ccnc4sccc34)c2cc1OC (centres unmarked) [Example 331, 6,7-dimethoxy-2-methyl-N-[1-(thieno[2,3-b]pyridin-4-yl)ethyl]quinazolin-4-amine]	> 20 µM	3.17 µM	–
COc1cc2nc(C)nc(NC(C)c3cncc4sccc34)c2cc1OC (centres unmarked) [Example 332, 6,7-dimethoxy-2-methyl-N-[1-(thieno[2,3-c]pyridin-4-yl)ethyl]quinazolin-4-amine]	> 20 µM	11.4 µM	–
COc1cc2nc(C)nc(NC(C)c3nccc4sccc34)c2cc1OC (centres unmarked) [Example 333, 6,7-dimethoxy-2-methyl-N-[1-(thieno[3,2-c]pyridin-4-yl)ethyl]quinazolin-4-amine]	–	14.8 µM	16.4 µM
COc1cc2nc(C)nc(N[C@H](C)c3cccc(-c4c(C)n[nH]c4C)c3)c2cc1OC [Example 334, N-{(1R)-1-[3-(3,5-dimethyl-1H-pyrazol-4-yl)phenyl]ethyl}-6,7-dimethoxy-2-methylquinazolin-4-amine]	> 20 µM	1.41 µM	–
COc1cc2nc(C)nc(N[C@H](C)c3cccc(-c4cn[nH]c4C)c3)c2cc1OC [Example 335, 6,7-dimethoxy-2-methyl-N-{(1R)-1-[3-(5-methyl-1H-pyrazol-4-yl)phenyl]ethyl}quinazolin-4-amine]	> 20 µM	0.564 µM	–
COc1cc2nc(C)nc(N[C@H](C)c3cccc(-c4c(C)noc4C)c3)c2cc1OC [Example 336, N-{(1R)-1-[3-(3,5-dimethyl-1,2-oxazol-4-yl)phenyl]ethyl}-6,7-dimethoxy-2-methyl-quinazolin-4-amine]	> 20 µM	1.99 µM	–
COc1cc2nc(C)nc(N[C@H](C)c3cccc(-c4ccn[nH]4)c3)c2cc1OC [Example 337, 6,7-dimethoxy-2-methyl-N-{(1R)-1-[3-(1H-pyrazol-5-yl)phenyl]ethyl}quinazolin-4-amine]	> 20 µM	1.35 µM	–
COc1cc2nc(C)nc(N[C@H](C)c3cccc(-c4cnn(C)c4)c3)c2cc1OC [Example 338, 6,7-dimethoxy-2-methyl-N-{(1R)-1-[3-(1-methyl-1H-pyrazol-4-yl)phenyl]ethyl}quinazolin-4-amine]	> 20 µM	1.39 µM	–
COc1cc2nc(C)nc(N[C@H](C)c3cccc(-c4ccnn4C)c3)c2cc1OC [Example 339, 6,7-dimethoxy-2-methyl-N-{(1R)-1-[3-(1-methyl-1H-pyrazol-5-yl)phenyl]ethyl}quinazolin-4-amine]	> 20 µM	1.99 µM	–
COc1cc2nc(C)nc(N[C@H](C)c3cccc(-n4ccnc4)c3)c2cc1OC [Example 340, N-{(1R)-1-[3-(1H-imidazol-1-yl)phenyl]ethyl}-6,7-dimethoxy-2-methylquinazolin-4-amine]	> 20 µM	1.39 µM	–
